Measurements published in article PMC3229538, “Inhibition of G Protein-Activated Inwardly Rectifying K^+ Channels by Different Classes of Antidepressants” (PLoS ONE, 2011).
Structures can show the parent of a compound that is named as a salt. Where two headings read alike, the source gives them in different places. Values belong to the compound of their own block, whether it stands above or below them.

Tests used:
[1] = test system: intrinsic oocyte channels; assay: Current responses in uninjected Xenopus oocytes; format: cell-based, Xenopus laevis
Method: Louis, MO, USA). […] Microelectrodes were filled with 3 M KCl. […] For the analysis of concentration-response relationships, the data were fitted to a standard logistic equation [51] using KaleidaGraph (Synergy Software, Reading, PA, USA). […] The data are expressed as mean ± SEM, and n is the number of oocytes tested. The statistical analysis of differences between groups was performed using paired t-test, one-way analysis of variance (ANOVA), or two-way ANOVA followed by the Tukey-Kramer post hoc test. Values of P<0.05 were considered statistically significant.

[2] = target: T1, GIRK1/2 channels activated by GTPγS (Mus musculus, UniProt P48542+P63250); assay: Inhibition of total GIRK currents (GTPγS-induced and basal) in GTPγS-injected oocytes; format: cell-based; settings: injection of 13.8 nl of 100 mM into oocyte
T1 construct: expressed in transfected cells; host or cells: Xenopus laevis oocytes injected with in vitro transcribed mRNA
T1 sequence (P63250 1-501): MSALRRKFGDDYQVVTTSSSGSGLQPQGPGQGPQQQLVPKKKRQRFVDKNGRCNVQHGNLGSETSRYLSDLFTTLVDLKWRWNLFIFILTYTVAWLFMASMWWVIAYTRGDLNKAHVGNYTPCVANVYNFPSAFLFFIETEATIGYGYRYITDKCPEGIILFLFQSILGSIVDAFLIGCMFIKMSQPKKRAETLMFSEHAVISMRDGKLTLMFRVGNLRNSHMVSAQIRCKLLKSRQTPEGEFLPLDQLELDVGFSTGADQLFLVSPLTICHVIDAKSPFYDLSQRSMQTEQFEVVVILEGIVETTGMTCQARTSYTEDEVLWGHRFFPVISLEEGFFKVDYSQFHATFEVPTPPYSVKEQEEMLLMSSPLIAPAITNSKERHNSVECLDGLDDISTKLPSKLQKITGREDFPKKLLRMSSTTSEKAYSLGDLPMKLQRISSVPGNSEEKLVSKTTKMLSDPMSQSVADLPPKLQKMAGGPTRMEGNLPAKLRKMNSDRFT
T1 sequence (P48542 1-425): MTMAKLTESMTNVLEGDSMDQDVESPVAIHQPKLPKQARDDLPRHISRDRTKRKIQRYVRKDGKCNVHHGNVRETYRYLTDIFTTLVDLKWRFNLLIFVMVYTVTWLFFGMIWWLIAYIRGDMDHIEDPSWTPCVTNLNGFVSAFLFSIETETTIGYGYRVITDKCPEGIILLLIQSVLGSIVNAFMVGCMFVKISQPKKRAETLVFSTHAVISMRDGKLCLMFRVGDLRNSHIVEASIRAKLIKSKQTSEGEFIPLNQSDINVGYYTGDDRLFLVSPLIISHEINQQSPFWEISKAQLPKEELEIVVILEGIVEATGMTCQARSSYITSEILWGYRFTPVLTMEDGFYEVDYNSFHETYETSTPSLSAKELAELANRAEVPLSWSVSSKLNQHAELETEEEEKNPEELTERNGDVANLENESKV
Excerpt: Microelectrodes were filled with 3 M KCl. […] GIRK channels are activated by various Gi/o-protein-coupled receptors through the direct action of G-protein βγ subunits released from the heterotrimeric G-protein complex, [33].

GIRK1/4 channels = target: T2, GIRK1/4 channels (Mus musculus, UniProt P48545+P63250); assay: Inhibition of basal GIRK currents, Xenopus oocyte expression assay, two-electrode voltage clamp; format: cell-based; settings: for inhibition at 100 µM: read-out: % inhibition of basal GIRK currents
T2 construct: expressed in transfected cells; host or cells: Xenopus laevis oocytes injected with in vitro transcribed mRNA
T2 sequence (P63250 1-501): T1 sequence (P63250 1-501)
T2 sequence (P48545 1-419): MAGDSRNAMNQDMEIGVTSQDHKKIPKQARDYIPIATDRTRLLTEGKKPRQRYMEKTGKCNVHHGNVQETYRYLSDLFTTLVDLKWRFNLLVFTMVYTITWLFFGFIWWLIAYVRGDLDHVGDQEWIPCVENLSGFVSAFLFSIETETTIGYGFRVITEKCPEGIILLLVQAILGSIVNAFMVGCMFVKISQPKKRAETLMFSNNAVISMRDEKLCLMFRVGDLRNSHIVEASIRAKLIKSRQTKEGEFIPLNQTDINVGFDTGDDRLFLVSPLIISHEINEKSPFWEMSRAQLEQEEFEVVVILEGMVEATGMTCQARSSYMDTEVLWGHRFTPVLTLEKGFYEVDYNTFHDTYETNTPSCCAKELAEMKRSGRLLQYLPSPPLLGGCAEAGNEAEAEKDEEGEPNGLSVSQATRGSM
Method: (§1) Microelectrodes were filled with 3 M KCl. […] The data are expressed as mean ± SEM, and n is the number of oocytes tested. The statistical analysis of differences between groups was performed using paired t-test, one-way analysis of variance (ANOVA), or two-way ANOVA followed by the Tukey-Kramer post hoc test. Values of P<0.05 were considered statistically significant.

GIRK1/2 channels = target: T3, GIRK1/2 channels (Mus musculus, UniProt P48542+P63250); assay: as above; format: cell-based; settings: for inhibition at 100 µM: read-out: % inhibition of basal GIRK currents
T3 construct: expressed in transfected cells; host or cells: Xenopus laevis oocytes injected with in vitro transcribed mRNA
T3 sequence (P63250 1-501): T1 sequence (P63250 1-501)
T3 sequence (P48542 1-425): T1 sequence (P48542 1-425)
Method: as §1

[3] = ref Data Sheets of Pfizer and Eli Lilly and Company; cited from earlier work
[4] = cited from earlier work
[5] = cited from earlier work; remark: listed apart in the source
[6] = pKa of secondary amine group and protonation; format: physicochemical; settings: pH 7.4
[7] = target: GIRK1/2 channels activated by ethanol (Mus musculus, UniProt P48542+P63250); settings: 100 mM
Excerpt: These plasmids were linearized by digestion with the appropriate enzymes as described previously [45], [46]. The specific mRNAs were synthesized in vitro using the mMESSAGE mMACHINE™ In Vitro Transcription Kit (Ambion, Austin, TX, USA).

GIRK channels = settings: cited from earlier work
Kir2.1 channels = test system: T4, Kir2.1 channels; assay: Effect on Kir2.1 currents, Xenopus oocyte expression assay; format: cell-based, mouse; settings: 300 µM, hK solution
T4 construct: expressed in transfected cells; host or cells: Xenopus laevis oocytes injected with in vitro transcribed mRNA
Method: Microelectrodes were filled with 3 M KCl. […]. The data are expressed as mean ± SEM, and n is the number of oocytes tested. The statistical analysis of differences between groups was performed using paired t-test, one-way analysis of variance (ANOVA), or two-way ANOVA followed by the Tukey-Kramer post hoc test. Values of P<0.05 were considered statistically significant.

[8] = basal GIRK currents, −70 mV, hK solution 96 mM K+
[9] = concentration reducing basal GIRK currents by 25%
[10] = concentration reducing basal GIRK currents by 50%
[11] = read-out: % max (percentage inhibition of basal GIRK currents at the highest concentration tested)
[12] = 100 µM, K4 solution 4 mM K+, −10 mV

Structure (SMILES): [Ba+2] [Ba^2+]
- current response ([1]; 3 mM, K4 solution 4 mM K+, −10 mV): 7.6±1.3 nA
- current response in GTPγS-injected uninjected oocytes ([1]; 3 mM, after GTPγS injection): 3.9±2.1 nA
- current response ([1]; 3 mM, hK solution, −70 mV): 3.1±1.7 nA

Structure (SMILES): Nc1nc2c(ncn2[C@@H]2O[C@H](COP(=O)([O-])OP(=O)([O-])OP([O-])([O-])=S)[C@@H](O)[C@H]2O)c(=O)[nH]1.[Li+].[Li+].[Li+].[Li+] [GTPγS, Li4-guanosine-5′-O-(3-thiotriphosphate)]
- increase of inward currents, steady-state level [2]: 516.0±123.7 nA

Structure (SMILES): CNCC[C@H](Oc1cccc2ccccc12)c1cccs1 [duloxetine, duloxetine hydrochloride]
- n H (Hill coefficient) (GIRK1/4 channels; basal GIRK currents): 0.97±0.07
- EC50 (GIRK1/4 channels; [8]): 17 ± 1.3 µM
- IC25 (GIRK1/4 channels; [9]): 12.6 ± 1.2 µM
- IC50 (GIRK1/4 channels; [10]): 124 ± 34.3 µM
- inhibition at 100 µM (GIRK1/4 channels): 49.7 ± 2.2%
- inhibition at 300 µM (GIRK1/4 channels; [11]): 54.1 ± 1.5%
- effect on outward GIRK currents (GIRK1/2 channels; 30 µM, K4 solution 4 mM K+, holding potential −10 mV): reversibly reduced
- voltage dependence of GIRK current inhibition at the end of the voltage pulses (GIRK1/2 channels; 30 µM, −120 to −40 mV): voltage-dependent
- n H (Hill coefficient) (GIRK1/2 channels; basal GIRK currents): 0.94±0.06
- EC50 (GIRK1/2 channels; [8]): 14.9 ± 0.4 µM
- IC25 (GIRK1/2 channels; [9]): 6.6 ± 0.6 µM
- IC50 (GIRK1/2 channels; [10]): 28.3 ± 2.5 µM
- effect of extracellular pH on percentage inhibition of GIRK channels (GIRK1/2 channels; extracellular pH 7.4 and 9.0): not significantly affected
- inhibition at 100 µM (GIRK1/2 channels): 65.6 ± 1%
- inhibition at 300 µM (GIRK1/2 channels; [11]): 72.2 ± 1.1%
- pKa of secondary amine group [3]: 9.34
- brain levels compared with blood levels [4]: 15 fold
- concentrations in cases of overdose [5]: ≤ 8.4 µM
- current response [1, 12]: 0±0 nA
- protonated form [6]: ~98.9%

Structure (SMILES): CCO [ethanol, Ethanol]
- induced GIRK currents [7]: 344.2±40.3 nA

Structure (SMILES): CCN(CC)C(=O)C1(c2ccccc2)CC1CN (stereo not drawn) [milnacipran]
- effects on GIRK channels (GIRK channels): little effects

Structure (SMILES): COc1ccc(C(CN(C)C)C2(O)CCCCC2)cc1 (stereo not drawn) [venlafaxine, Venlafaxine hydrochloride]
- inhibition at 100 µM (GIRK1/4 channels): 22.8 ± 3.2%
- inhibition at 100 µM (GIRK1/2 channels): 19.4 ± 4.6%
- brain levels compared with blood levels [4]: 4.9 fold
- concentrations in cases of overdose [5]: ≤ 302.8 µM

The next lines start with results.

- inhibition at 100 µM (GIRK1/4 channels; 100 µM, −70 mV, hK solution): 18.8 ± 1.3%
- inhibition at 100 µM (GIRK1/2 channels; 100 µM, −70 mV, hK solution): 24.1 ± 5.5%
Structure (SMILES): CN1CCN2c3ccccc3Cc3ccccc3C2C1 (stereo not drawn) [mianserin, mianserin hydrochloride]
- brain levels compared with blood levels [4]: 12.1 fold
- concentrations in cases of overdose [5]: ≤ 18.9 µM

- inhibition at 100 µM (GIRK1/4 channels; 100 µM, −70 mV, hK solution): 12.1 ± 2.4%
- inhibition at 100 µM (GIRK1/2 channels; 100 µM, −70 mV, hK solution): 17.6 ± 3.5%
Structure (SMILES): CN1CCN2c3ncccc3Cc3ccccc3C2C1 (stereo not drawn) [mirtazapine, Mirtazapine]
- brain levels compared with blood levels [4]: 3.2 fold

- inhibition at 100 µM (GIRK1/4 channels; 100 µM, −70 mV, hK solution): 30.3 ± 3.4%
- inhibition at 100 µM (GIRK1/2 channels; 100 µM, −70 mV, hK solution): 35.9 ± 3.5%
Structure (SMILES): CCc1nn(CCCN2CCN(c3cccc(Cl)c3)CC2)c(=O)n1CCOc1ccccc1 [nefazodone, nefazodone hydrochloride]
- concentrations in cases of overdose [5]: ≤ 11.7 µM

- protonated form [6]: approximately 96.9%
Structure (SMILES): CN[C@H]1CC[C@@H](c2ccc(Cl)c(Cl)c2)c2ccccc21 [sertraline, Sertraline hydrochloride]
- pKa of secondary amine group [3]: 8.9
- current response [1, 12]: 3.0±0.9 nA
- current response ([1]; 300 µM, hK solution, −70 mV): 2.0±2.0 nA
- % change of the Ba2+-sensitive current components (Kir2.1 channels): less than 2%
